Results on 61 compounds are retold here after EP1586565A1, “Substituted polycyclic aryl and heteroaryl pyrazinones useful for selective inhibition of the coagulation cascade” (Pharmacia Corporation, priority 1999, dated 2000).

The structures appear in SMILES notation.

T1 sequence (P00742 235-488 limits assumed): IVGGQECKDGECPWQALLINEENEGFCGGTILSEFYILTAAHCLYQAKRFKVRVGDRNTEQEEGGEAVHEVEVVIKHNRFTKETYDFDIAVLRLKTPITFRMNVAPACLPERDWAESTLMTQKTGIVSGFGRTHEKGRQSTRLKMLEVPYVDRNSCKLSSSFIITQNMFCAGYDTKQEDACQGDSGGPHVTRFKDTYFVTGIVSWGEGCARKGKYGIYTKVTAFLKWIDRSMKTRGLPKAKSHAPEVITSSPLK
T1 sequence (P00742 41-179 limits assumed): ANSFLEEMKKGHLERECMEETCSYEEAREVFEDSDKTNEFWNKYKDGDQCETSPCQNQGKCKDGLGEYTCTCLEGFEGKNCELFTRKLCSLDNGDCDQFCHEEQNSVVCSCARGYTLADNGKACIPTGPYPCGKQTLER

The first assay concerns the target T1, Human factor Xa (Homo sapiens, UniProt P00742).
T1 construct: leads from XII to XIIa to XIa to IXa and to the conversion of X to Xa; purchased Enzyme Research Laboratories, South Bend IN
Nature of the assay: Xa Assay. The conditions noted are these: 100 µM. The class given is biochemical.
Regarding `O=C(Cn1c(-c2ccc(Cl)cc2)c(Cl)nc(NCCN2CCOCC2)c1=O)NCCc1ccncc1` [Example E-0031], the “% Inhibition Factor Xa (100 µM)” value came out at 0%. In the case of `COc1ccc(-c2c(Cl)nc(NCCc3ccc(Cl)cc3)c(=O)n2CC(=O)NCCc2ccncc2)cc1` [Example E-0106], the “% Inhibition Factor Xa (100 µM)” value turned out to be 3%. For `O=C(Cn1c(-c2cccc(Cl)c2)c(Cl)nc(NCCc2cccc(Cl)c2)c1=O)NCCc1cccnc1` [Example E-0092], the “% Inhibition Factor Xa (100 µM)” value is recorded as 3%. Regarding `O=C(Cn1c(-c2cccc(Cl)c2)c(Cl)nc(NCc2ccccc2)c1=O)NCCc1cccnc1` [Example E-0086], the “% Inhibition Factor Xa (100 µM)” value amounted to 4%.

Take `COc1ccc(-c2c(Cl)nc(NCCc3cccc(Cl)c3)c(=O)n2CC(=O)NCCc2ccncc2)cc1` [Example E-0103]: the “% Inhibition Factor Xa (100 µM)” value is listed as 3%.

With `O=C(Cn1c(-c2ccc(-c3ccccc3)cc2)c(Cl)nc(NCCc2ccccc2)c1=O)NCCc1ccncc1` [Example E-0050], the “% Inhibition Factor Xa (100 µM)” value is 0%. Regarding `O=C(Cn1c(-c2cccc(Cl)c2)c(Cl)nc(NCCc2ccc(Cl)cc2)c1=O)NCCc1cccnc1` [Example E-0095], the “% Inhibition Factor Xa (100 µM)” value is listed as 4%. Still for that read-out and setting: to `O=C(Cn1c(-c2cccc(Cl)c2)c(Cl)nc(NCCc2ccccc2)c1=O)NCCc1cccnc1` [Example E-0089] belongs 4%.

The assay is the same for the next values; noted with them: % inhibition at 30 µM (cells with % or %@30, bare 0).
Consider `C[C@H](C(=O)NCc1ccc(C(=N)N)cc1)n1c(-c2ccccc2)c(Cl)nc(NC2CCC2)c1=O` [1517-11], for which the “IC50 or % Inhibition Factor Xa (30 µM)” value was 0%. For the compound `Cc1c(Cl)nc(NCCc2cccc(Cl)c2)c(=O)n1CC(=O)NCc1ccc(C(=N)N)cc1` [1471-6], the “IC50 or % Inhibition Factor Xa (30 µM)” value amounted to 14%. Still for that read-out and setting: the result for `N=C(N)c1ccc(CNC(=O)Cn2c(-c3ccccc3)c(Cl)nc(NCc3cc(C(F)(F)F)ccc3F)c2=O)cc1` [1512-27] reads 3%; that for `CC(C)Nc1ncc(-c2cccc(N)c2)n(CC(=O)NCc2ccc(C(=N)N)c(F)c2)c1=O` [Example 43], 0%; that for `CCc1c(Cl)nc(NCCc2ccccc2)c(=O)n1CC(=O)NCc1ccc(C(=N)N)cc1` [1471-63], 2%. On to `C[C@H](C(=O)NCc1ccc(C(=N)N)cc1)n1c(-c2ccccc2)c(Cl)nc(NCCc2ccccc2)c1=O` [1517-17], for which the “IC50 or % Inhibition Factor Xa (30 µM)” value was found to be 0%. Turning to `N=C(N)c1ccc(CNC(=O)Cn2c(-c3ccc(Cl)cc3)c(Cl)nc(NCCc3cccc(Cl)c3)c2=O)cc1` [1471-22], the “IC50 or % Inhibition Factor Xa (30 µM)” value was 28%.

For `CCCCNc1nc(Cl)c(-c2ccccc2)n(CC(=O)NCc2ccc(C(=N)N)cc2)c1=O` [1512-14], the “IC50 or % Inhibition Factor Xa (30 µM)” value amounted to 7%. On to `N=C(N)c1ccc(CNC(=O)Cn2c(-c3ccccc3)c(Cl)nc(NCCC3=CCCCC3)c2=O)cc1` [1507-17], for which the “IC50 or % Inhibition Factor Xa (30 µM)” value was found to be 16%. For the compound `CCc1c(Cl)nc(NCCN2CCOCC2)c(=O)n1CC(=O)NCc1ccc(C(=N)N)cc1` [1471-60], the “IC50 or % Inhibition Factor Xa (30 µM)” value was 0%. Same read-out and setting: the result for `CCCCCNc1nc(Cl)c(-c2ccccc2)n(CC(=O)NCc2ccc(C(=N)N)cc2)c1=O` [1517-48] reads 0%. Take `N=C(N)c1ccc(CNC(=O)Cn2c(-c3ccccc3)c(Cl)nc(NCCc3cccnc3)c2=O)cc1` [1471-16]: the “IC50 or % Inhibition Factor Xa (30 µM)” value was 23%. As for `Cc1c(Cl)nc(NCc2ccncc2)c(=O)n1CC(=O)NCc1ccc(C(=N)N)cc1` [1471-3], the “IC50 or % Inhibition Factor Xa (30 µM)” value is given as 0%. Same read-out and setting: to `N=C(N)c1ccc(CNC(=O)Cn2c(-c3ccccc3)c(Cl)nc(NC3CCCCC3)c2=O)cc1` [1517-25] belongs 0%; to `CN1CCCC1CCNc1nc(Cl)c(-c2ccccc2)n(CC(=O)NCc2ccc(C(=N)N)cc2)c1=O` (stereo not shown) [1512-46], 10%. `CCc1c(Cl)nc(NCCc2ccc(Cl)cc2)c(=O)n1CC(=O)NCc1ccc(C(=N)N)cc1` [1471-58]: the “IC50 or % Inhibition Factor Xa (30 µM)” value was determined as 0%. On the same count and under the same terms, the result for `N=C(N)c1ccc(CNC(=O)Cn2c(-c3ccccc3)c(Cl)nc(NCCc3ccncc3)c2=O)cc1` [1471-13] reads 0%; that for `N=C(N)c1ccc(CNC(=O)Cn2c(-c3ccccc3)c(Cl)nc(NCCCCc3ccccc3)c2=O)cc1` [1507-43], 21%.

`CC(C)Nc1nc(Cl)c(-c2cc(N)ccc2F)n(CC(=O)NCc2ccc(C(=N)N)cc2F)c1=O` [compound 73]: the “IC50 or % Inhibition Factor Xa (30 µM)” value was 0%. Regarding `N=C(N)c1ccc(CNC(=O)Cn2c(-c3ccccc3)c(Cl)nc(NC3CCC3)c2=O)cc1` [1507-21], the “IC50 or % Inhibition Factor Xa (30 µM)” value is 23%.

`N=C(N)c1ccc(CNC(=O)Cn2c(-c3c(Cl)cccc3Cl)c(Cl)nc(NCCc3ccccc3)c2=O)cc1` [1517-18]: the “IC50 or % Inhibition Factor Xa (30 µM)” value was 0%. For the compound `N=C(N)c1ccc(CNC(=O)Cn2c(-c3c(Cl)cccc3Cl)c(Cl)nc(NCCc3cccc(Cl)c3)c2=O)cc1` [1517-24], the “IC50 or % Inhibition Factor Xa (30 µM)” value came out at 0%. For the compound `N=C(N)c1ccc(CNC(=O)Cn2c(-c3ccccc3)c(Cl)nc(NCCc3ccc(Cl)c(Cl)c3)c2=O)cc1` [1507-44], the “IC50 or % Inhibition Factor Xa (30 µM)” value is recorded as 9%. Take `N=C(N)c1ccc(CNC(=O)Cn2c(-c3ccc4c(c3)OCO4)c(Cl)nc(NCCc3ccncc3)c2=O)cc1` [1471-45]: the “IC50 or % Inhibition Factor Xa (30 µM)” value turned out to be 24%. As for `N=C(N)c1ccc(CNC(=O)Cn2c(-c3ccsc3)c(Cl)nc(NCCc3ccccc3)c2=O)cc1` [1517-13], the “IC50 or % Inhibition Factor Xa (30 µM)” value amounted to 0%. For `N=C(N)c1ccc(CNC(=O)Cn2c(-c3ccccc3)c(Cl)nc(NC(c3ccccc3)c3ccccc3)c2=O)cc1` [1507-35], the “IC50 or % Inhibition Factor Xa (30 µM)” value was determined as 28%. In the case of `N=C(N)c1ccc(CNC(=O)Cn2c(-c3ccc(Cl)cc3)c(Cl)nc(NCCc3ccccc3)c2=O)cc1` [1471-23], the “IC50 or % Inhibition Factor Xa (30 µM)” value came out at 36%. On to `CSCC(C(=O)NCc1ccc(C(=N)N)cc1)n1c(-c2ccccc2)c(Cl)nc(NCCc2ccccc2)c1=O` (stereo not shown) [1517-16], for which the “IC50 or % Inhibition Factor Xa (30 µM)” value is recorded as 0%. For the compound `CC(C)CCNc1nc(Cl)c(-c2ccccc2)n(CC(=O)NCc2ccc(C(=N)N)cc2)c1=O` [1517-40], the “IC50 or % Inhibition Factor Xa (30 µM)” value turned out to be 0%. Still for that read-out and setting: to `N=C(N)c1ccc(CNC(=O)Cn2c(-c3cccc(Cl)c3)c(Cl)nc(NCCc3ccccc3)c2=O)cc1` [1471-31] belongs 17%. `N=C(N)c1ccc(CNC(=O)Cn2c(-c3ccc4c(c3)OCO4)c(Cl)nc(NCCc3cccc(Cl)c3)c2=O)cc1` [1471-46]: the “IC50 or % Inhibition Factor Xa (30 µM)” value is 21%. In the case of `N=C(N)c1ccc(CNC(=O)Cn2c(-c3ccccc3)c(Cl)nc(NCC3COc4ccccc4O3)c2=O)cc1` (stereo not shown) [1512-01], the “IC50 or % Inhibition Factor Xa (30 µM)” value amounted to 4%. Regarding `Cc1c(Cl)nc(NCCc2ccncc2)c(=O)n1CC(=O)NCc1ccc(C(=N)N)cc1` [1471-5], the “IC50 or % Inhibition Factor Xa (30 µM)” value is given as 12%.

On to `CC(C)Nc1nc(Cl)c(-c2cccc(N)c2)n(CC(=O)NCc2ccc(C(=N)N)c(F)c2)c1=O` [Example 42], for which the “IC50 or % Inhibition Factor Xa (30 µM)” value stood at 0%. Consider `CCc1c(Cl)nc(NCCc2cccnc2)c(=O)n1CC(=O)NCc1ccc(C(=N)N)cc1` [1471-64], for which the “IC50 or % Inhibition Factor Xa (30 µM)” value worked out at 2%.

`N=C(N)c1ccc(CNC(=O)Cn2c(-c3ccccc3)c(Cl)nc(NC3CCS(=O)(=O)C3)c2=O)cc1` (stereo not shown) [1507-36]: the “IC50 or % Inhibition Factor Xa (30 µM)” value came out at 0%.

`Cc1c(Cl)nc(NCCc2ccc(Cl)cc2)c(=O)n1CC(=O)NCc1ccc(C(=N)N)cc1` [1471-2]: the “IC50 or % Inhibition Factor Xa (30 µM)” value is 10%. Take `N=C(N)c1ccc(CNC(=O)Cn2c(-c3ccccc3)c(Cl)nc(NCc3cc(Cl)ccc3Cl)c2=O)cc1` [1512-35]: the “IC50 or % Inhibition Factor Xa (30 µM)” value was 4%. Turning to `CCCCC(CC)Nc1nc(Cl)c(-c2ccccc2)n(CC(=O)NCc2ccc(C(=N)N)cc2)c1=O` (stereo not shown) [1512-12], the “IC50 or % Inhibition Factor Xa (30 µM)” value stood at 5%. Take `N=C(N)c1ccc(CNC(=O)Cn2c(-c3ccc4c(c3)OCO4)c(Cl)nc(NCCc3ccccc3)c2=O)cc1` [1471-47]: the “IC50 or % Inhibition Factor Xa (30 µM)” value was 22%.

As for `N=C(N)c1ccc(CNC(=O)Cn2c(-c3ccccc3)c(Cl)nc(NCCN3CCOCC3)c2=O)cc1` [1471-12], the “IC50 or % Inhibition Factor Xa (30 µM)” value was 9%.

Consider `N=C(N)c1ccc(CNC(=O)Cn2c(Cc3ccccc3)c(Cl)nc(NCCc3ccccc3)c2=O)cc1` [Example 20], for which the “IC50 or % Inhibition Factor Xa (30 µM)” value is 6%@30. The same measure, in the same setting: to `C[Si](C)(C)CNc1nc(Cl)c(-c2ccccc2)n(CC(=O)NCc2ccc(C(=N)N)cc2)c1=O` [1517-36] belongs 0%; to `CSCC(C(=O)NCc1ccc(C(=N)N)cc1)n1c(-c2ccccc2)c(Cl)nc(NCc2ccccc2)c1=O` (stereo not shown) [1517-04], 0%. Same read-out and setting: the result for `N=C(N)c1ccc(CNC(=O)Cn2c(-c3ccccc3)c(Cl)nc(NCc3ccccc3)c2=O)cc1` [1471-9] reads 29%; that for `N=C(N)c1ccc(CNC(=O)Cn2c(-c3ccccc3)c(Cl)nc(NCC(c3ccccc3)c3ccccc3)c2=O)cc1` [1507-09], 13%; that for `N=C(N)c1ccc(CNC(=O)Cn2c(-c3cccc(Cl)c3)c(Cl)nc(NCCN3CCOCC3)c2=O)cc1` [1471-28], 8%. In the case of `CC(C)Nc1nc(Cl)c(-c2cccnc2)n(CC(=O)NCc2ccc(C(=N)N)cc2)c1=O` [compound 75], the “IC50 or % Inhibition Factor Xa (30 µM)” value was found to be 9%. Consider `N=C(N)c1ccc(CNC(=O)Cn2c(-c3ccccc3)c(Cl)nc(NC3CCCCCC3)c2=O)cc1` [1512-16], for which the “IC50 or % Inhibition Factor Xa (30 µM)” value is given as 10%. Same read-out and setting: to `CCOc1ccccc1CNc1nc(Cl)c(-c2ccccc2)n(CC(=O)NCc2ccc(C(=N)N)cc2)c1=O` [1512-11] belongs 5%. `COC(=O)c1cccc(-c2c(Cl)nc(NC(C)C)c(=O)n2CC(=O)NCc2ccc(C(=N)N)cc2)c1` [Example 64]: the “IC50 or % Inhibition Factor Xa (30 µM)” value was 19%. Turning to `CCCNc1nc(Cl)c(-c2ccccc2)n(CC(=O)NCc2ccc(C(=N)N)cc2)c1=O` [1517-33], the “IC50 or % Inhibition Factor Xa (30 µM)” value was determined as 0%. Consider `COc1ccc(-c2c(Cl)nc(NCCc3ccc(Cl)cc3)c(=O)n2CC(=O)NCc2ccc(C(=N)N)cc2)cc1` [1471-34], for which the “IC50 or % Inhibition Factor Xa (30 µM)” value turned out to be 24%.
